# Test results published in patent publication US9018250B2, “Pharmaceutical composition and dosage form comprising dronedarone, and preparation method thereof” (Sanofi, priority 2010, dated 2015).
# Like-named read-outs stand apart in the source and are kept apart here.
# How the values were obtained:
# [1] = Solubility of dronedarone hydrochloride and base form in lipid excipients (Table A); assay type: physicochemical
# [2] = In-vitro dissolution test with a jump in pH (simulated gastric pH 4, then simulated intestinal pH 6.5); assay type: physicochemical; details: for percentage of active principle released (dissolution curves, in words): pH 4 for 60 min, then pH 6.5 up to 180 min, FIG. 1-7
# Description: In order to reproduce the effect of pH on the active principle and in particular on its dissolution during its passage through the gastrointestinal tract, a gastrointestinal environment was simulated by reproducing the pH of the stomach and then the pH of the intestine with a jump in pH. The dissolution kinetics was investigated using a simple in-vitro dissolution test with a jump in pH.
# The principle consists of determining the dissolution of the formulated active principle by studying its dissolution kinetics at 37° C., firstly in simulated gastric medium at pH 4, then in simulated intestinal medium at pH 6.5, in a time interval consistent with the gastrointestinal tract.
# Equipment: precision balance (Mettler AE200 or AT261), pH meter (Knick or Schott Geräte or Inolab), thermostated Dissolutest 6 or 7 bowls (Sotax AT6 or AT7), 5 μm filter (PALL Versapore 25 mm) with syringe (Térumo), UV spectrophotometer (Gilford Response II or Perkin Elmer) or HPLC (Merck or Agilent).
# Dissolution media: The simulated physiological media representative of the gastrointestinal tract are obtained from simulated gastric and intestinal fluids recommended by the USP, but used without pepsin or pancreatin. • simulated gastric fluid—USP (without pepsin): • 2 g of sodium chloride per 900 ml of distilled water, • pH adjusted to 1.2 with concentrated hydrochloric acid (37%), • Q.S. 1000 ml with distilled water. • simulated intestinal fluid—USP (without pancreatin): • 6.8 g of potassium dihydrogen phosphate per 900 ml of distilled water, • pH adjusted to 7.5 with concentrated sodium hydroxide (10 M), • Q.S. 1000 ml with distilled water.
# The simulated gastric medium of pH 4 is thus obtained by mixing the two simulated fluids in various proportions, monitoring with a pH electrode. The dissolution medium of the intestinal type is adjusted to pH 6.5 with a few drops of concentrated soda (10M) to simulate passage of the active principle into the beginning of the intestine, without leading to dilution.
# Standard solutions of active principle are prepared in a solvent medium, preferably in the mobile phase or ethanol or methanol, and then analyzed at the characteristic wavelength of the active principle. A calibration straight line showing the concentrations as a function of the optical densities (analysis by UV spectrophotometry) or of the areas under peak (HPLC analysis) is then determined. The equation of the straight line obtained can be used for determining the concentration of dissolved active principle from measurement of the optical density or of the area under peak.
# The concentration used corresponds to the dose in 250 ml (i.e. 4 capsules in a 500-ml bowl). The dissolution kinetics is first investigated in simulated gastric medium of pH 4 in the dissolution test in bowls thermostated at 37° C., with paddle stirring at 75 rpm, for 1 hour with sampling at times 5, 15, 30, 45 and 60 minutes, then in intestinal medium with an increase in pH to 6.5 by adding a small volume of concentrated soda (example: 0.400 ml for 500 ml of medium at pH 4), monitoring with a pH electrode. The kinetics is monitored for 3 hours with sampling at times 75, 90, 120 and 180 minutes and each sample is filtered at 5 μm and then analyzed.
# Two methods of analysis can be used depending on the sensitivity required and the dosage form under investigation: UV spectrophotometry (for active principle only) or HPLC (for active principle only or formulated).
# The concentration at a time t is determined based on the previously established calibration. During analysis by UV spectrophotometry, the whole absorption spectrum is monitored at least at the end of the kinetic study. In addition, the pH of the medium is monitored at the end of the kinetic study. […]
# [3] = cited from earlier work
# [4] = cited from earlier work; remark: listed apart in the source
# [5] = Capmul PG8 (HLB 5), oil or lipid, in Capmul PG8 (HLB 5), RT, read-out: Solubility
# [6] = Captex 355, oil or lipid, in Captex 355, RT, read-out: Solubility
# [7] = Cremophor RH 40 (HLB 14), 55 °C, oil or lipid, in Cremophor RH 40 (HLB 14), 55° C., read-out: Solubility
# [8] = Gelucire 33/01 (HLB 1), 55 °C, oil or lipid, in Gelucire 33/01 (HLB 1), 55° C., read-out: Solubility
# [9] = Gelucire 43/01 (HLB 1), 55 °C, oil or lipid, in Gelucire 43/01 (HLB 1), 55° C., read-out: Solubility
# [10] = Labrafac PG, oil or lipid, in Labrafac PG, RT, read-out: Solubility
# [11] = Labrafil M1944Cs, oil or lipid, in Labrafil M1944Cs, RT, read-out: Solubility
# [12] = Labrasol ALF, oil or lipid, in Labrasol ALF, RT, read-out: Solubility
# [13] = Lauroglycol 90, oil or lipid, in Lauroglycol 90, RT, read-out: Solubility
# [14] = Lipophilic Labrafac, oil or lipid, in Lipophilic Labrafac, RT, read-out: Solubility
# [15] = Miglyol 812N, oil or lipid, in Miglyol 812N, RT, read-out: Solubility
# [16] = PEG 400, organic solvent or mixture, in PEG 400, RT, read-out: Solubility
# [17] = propylene glycol, organic solvent or mixture, in propylene glycol, RT, read-out: Solubility
# [18] = soybean oil, oil or lipid, in soybean oil, RT, read-out: Solubility
# [19] = surfactant Chrem RH40 (HLB 14), capsules G24 (HCl) / G25 (base)
# [20] = surfactant Pluronic L44 (HLB 12), capsules G26 (HCl) / G27 (base), pH 6.5 after jump, 37° C.
# [21] = surfactant Polox 188 (HLB 29), capsules G22 (HCl) / G23 (base)
# [22] = surfactant Polox 407 (HLB 22), capsules G1 (HCl) / G5 (base)
# [23] = surfactant Tween 60 (HLB 15), capsules G28 (HCl) / G29 (base)
SMILES,"solubility [1, 5] [mg/mL]","solubility [1, 6] [mg/mL]","solubility [1, 7] [mg/mL]","solubility [1, 8] [mg/mL]","solubility [1, 9] [mg/mL]","solubility [1, 10] [mg/mL]","solubility [1, 11] [mg/mL]","solubility [1, 12] [mg/mL]","solubility [1, 13] [mg/mL]","solubility [1, 14] [mg/mL]","solubility [1, 15] [mg/mL]","solubility [1, 16] [mg/mL]","solubility [1, 17] [mg/mL]","solubility [1, 18] [mg/mL]","percentage of active principle released (dissolution curves, in words) [2]","% of dronedarone at 180 min [2, 19] [%]","% of dronedarone at 180 min [2, 20] [%]","% of dronedarone at 180 min [2, 21] [%]","% of dronedarone at 180 min [2, 22] [%]","% of dronedarone at 180 min [2, 23] [%]",other results
"CCCCc1oc2ccc(NS(C)(=O)=O)cc2c1C(=O)c1ccc(OCCCN(CCCC)CCCC)cc1 [Dronedarone Base, 2-n-butyl-3-[4-(3-di-n-butylaminopropoxy)benzoyl]-5-methylsulfonamidobenzofuran]",517,167,> 313,371,259,184,208,401,311,129,144,273,18.2,60.7,equivalent regardless of which nonionic surfactant is used,85.3,76.38,71.32,72.89,81.12,"solubility ([1]; Crodamol EO (ethyl oleate), oil or lipid, in Crodamol EO (ethyl oleate), RT, read-out: Solubility): 154 mg/mL; solubility ([1]; Gelucire 44/14 (HLB 14), 55 °C, oil or lipid, in Gelucire 44/14 (HLB 14), 55° C., read-out: Solubility): 633 mg/mL; solubility ([1]; Labrasol, oil or lipid, in Labrasol, RT, read-out: Solubility): > 400 mg/mL; solubility ([1]; ethanol, organic solvent or mixture, in ethanol, RT, read-out: Solubility): > 500 mg/mL; solubility ([1]; in Labrafil M1944Cs, RT): 192.6 mg/mL; solubility ([1]; in Miglyol 812N, RT): 141.6 mg/mL; solubility ([1]; in PEG 400, RT): 280.1 mg/mL; solubility ([1]; in soybean oil, RT): 87.7 mg/mL; solubility ([1]; oleic acid, oil or lipid, in Oleic acid, RT, read-out: Solubility): > 341 mg/mL; solubility ([1]; sweet almond oil, oil or lipid, in sweet almond oil, RT, read-out: Solubility): 45.2 mg/mL; absolute bioavailability ([3]; taken with food): no more than 15%; absorption after oral administration ([3]; with a meal): at least 70%"
"CCCCc1oc2ccc(NS(C)(=O)=O)cc2c1C(=O)c1ccc(OCCCN(CCCC)CCCC)cc1.Cl [Dronedarone Hydrochloride, 2-n-butyl-3-[4-(3-di-n-butylaminopropoxy)benzoyl]-5-methylsulfonamidobenzofuran hydrochloride]",10,0.0353,14.8,0.0962,0.0445,0.0416,0.504,4.84,2.09,0.0251,0.0409,13.2,15.8,0.0231,better profiles for an HLB between 15 and 25,59.01,49.1,69.82,90.49,58.32,"behaviour on dilution to 1/10 with aqueous solution buffered at pH=7 ([4]; final pH of the medium=6.7): is precipitated; solubility ([4]; room temperature, pH=7): no more than 10 μg/ml"
